Like-named read-outs stand apart in the source and are kept apart here.
Experiments:
[1] = molecular target: T1, mu-opioid receptor (Rattus norvegicus, UniProt P33535); assay type: binding
T1 construct: expressed in transfected cells; host or cells: HEK293 cells, transient transfection

[2] = molecular target: T1, mu-opioid receptor; assay type: cell-based

T1 sequence (P33535 whole entry): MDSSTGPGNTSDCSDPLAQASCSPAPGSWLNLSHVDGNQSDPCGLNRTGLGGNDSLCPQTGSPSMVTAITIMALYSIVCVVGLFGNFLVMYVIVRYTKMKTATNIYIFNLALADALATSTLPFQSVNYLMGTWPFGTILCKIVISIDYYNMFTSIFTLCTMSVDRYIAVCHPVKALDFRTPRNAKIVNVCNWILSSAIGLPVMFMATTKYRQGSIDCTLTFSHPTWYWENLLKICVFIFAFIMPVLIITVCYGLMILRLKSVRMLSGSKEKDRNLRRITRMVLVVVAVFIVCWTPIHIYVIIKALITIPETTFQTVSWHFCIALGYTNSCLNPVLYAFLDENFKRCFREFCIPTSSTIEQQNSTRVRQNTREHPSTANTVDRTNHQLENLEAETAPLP

## C[C@@H](NC(=O)[C@@H](N)Cc1ccc(O)cc1)C(=O)NCC(=O)N(C)[C@@H](Cc1ccccc1)C(=O)NCCO [DAMGO, (D-Ala^2, N-MePhe^4, Gly^5-ol)-enkephalin]
[1]
  Affinity and number of binding sites, pH dependence: slightly (nonsignificantly) lower at pH 5.5 compared to pH 7.5
[1]; pH 5.5
  ^3H-DAMGO Bmax: 14.04 fmol/mg
[1]; pH 6.5
  ^3H-DAMGO Bmax: 15.50 fmol/mg
[1]; pH 7.5
  ^3H-DAMGO Bmax: 23.95 fmol/mg
[2]; pH 5
  cAMP (% baseline): 43 ± 6 % baseline
[2]; pH 6.5
  cAMP (% baseline): 68 ± 9 % baseline
[2]; pH 7.5
  Suppression of FSK/IBMX-stimulated cAMP, pH dependence: markedly stronger at pH 5.0 than at pH 7.5
  cAMP (% baseline): 82 ± 7 % baseline

Reference: patent US20140364449A1 (priority 2012, published 2014)
